Experimental data taken from US10519154B2, “7-substituted 1-pyridyl-naphthyridine-3-carboxylic acid amides and use thereof” (Bayer Pharma Aktiengesellschaft, priority 2016, dated 2019).

Molecular target: T1, human M2 receptor (Homo sapiens, UniProt P08172)
T1 sequence (P08172 1-466): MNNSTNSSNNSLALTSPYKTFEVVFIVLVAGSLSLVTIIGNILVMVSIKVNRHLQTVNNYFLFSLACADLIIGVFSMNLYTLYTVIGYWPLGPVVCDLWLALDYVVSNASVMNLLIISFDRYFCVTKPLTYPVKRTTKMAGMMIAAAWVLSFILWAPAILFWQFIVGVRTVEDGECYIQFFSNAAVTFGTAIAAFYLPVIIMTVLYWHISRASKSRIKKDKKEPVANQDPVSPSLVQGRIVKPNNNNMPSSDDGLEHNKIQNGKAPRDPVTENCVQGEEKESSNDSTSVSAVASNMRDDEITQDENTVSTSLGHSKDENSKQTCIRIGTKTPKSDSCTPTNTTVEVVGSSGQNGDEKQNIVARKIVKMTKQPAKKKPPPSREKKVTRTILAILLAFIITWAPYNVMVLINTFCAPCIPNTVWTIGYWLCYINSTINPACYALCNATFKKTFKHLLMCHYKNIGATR
Experiment: Functional M2-GIRK1/4 activation test: allosteric potency (EC50) and efficiency
Conditions: for EC50: Receptor activity EC50, CHO-DUKX-M2-GIRK cells, acetylcholine at EC20, in some cases mean of two or more determinations; for Emax: read-out: Efficiency, boosting of the acetylcholine effect at EC20 acetylcholine concentration; for Emax / Efficiency: CHO-DUKX-M2-GIRK cells; for Efficiency: boosting of the acetylcholine effect at EC20 acetylcholine concentration

| SMILES | EC50 [nM] | Emax [%] | Efficiency [%] |
| --- | --- | --- | --- |
| O=C(NC(C1CC1)C(F)(F)F)c1cn(-c2ncc(F)cc2F)c2nc(N3C[C@@H](O)[C@@H](O)C3)ccc2c1=O (stereo partly drawn) [Example 35, N-[1-Cyclopropyl-2,2,2-trifluoroethyl]-1-(3,5-difluoropyridin-2-yl)-7-[(3R,4S)-3,4-dihydroxypyrrolidin-1-yl]-4-oxo-1,4-dihydro-1,8-naphthyridine-3-carboxamide] | 170 | 99.5 | – |
| O=C(N[C@H](C1CC1)C(F)(F)F)c1cn(-c2ncc(F)cc2F)c2nc(N3CC4CC4(O)C3)ccc2c1=O (single isomer, unassigned) [Example 39] | 51 | – | 99.00 |
| CC(CF)(CF)NC(=O)c1cn(-c2ncc(F)cc2F)c2nc(N3C[C@@H](O)[C@H](O)C3)ccc2c1=O [Example 103, N-(1,3-Difluoro-2-methylpropan-2-yl)-1-(3,5-difluoropyridin-2-yl)-7-[(3R,4R)-3,4-dihydroxypyrrolidin-1-yl]-4-oxo-1,4-dihydro-1,8-naphthyridine-3-carboxamide] | 305 | 100 | – |
| CC(C)C[C@H](NC(=O)c1cn(-c2ncc(F)cc2F)c2nc(N3C[C@@H](O)[C@H](O)C3)ccc2c1=O)C(F)(F)F [Example 82, 1-(3,5-Difluoropyridin-2-yl)-7-[(3R,4R)-3,4-dihydroxypyrrolidin-1-yl]-4-oxo-N-[(2S)-1,1,1-trifluoro-4-methylpentan-2-yl]-1,4-dihydro-1,8-naphthyridine-3-carboxamide] | 28 | 100 | – |
| CC[C@@H](NC(=O)c1cn(-c2ncc(F)cc2F)c2nc(N3CC4CC4(O)C3)ccc2c1=O)C(F)(F)F (single isomer, unassigned) [Example 44] | 31 | 98.5 | – |
| O=C(N[C@@H](C1CC1)C(F)(F)F)c1cn(-c2ncc(F)cc2F)c2nc(N3C[C@@H](O)[C@H](O)C3)ccc2c1=O [Example 63, N-[(1S)-1-Cyclopropyl-2,2,2-trifluoroethyl]-1-(3,5-difluoropyridin-2-yl)-7-[(3R,4R)-3,4-dihydroxypyrrolidin-1-yl]-4-oxo-1,4-dihydro-1,8-naphthyridine-3-carboxamide] | 170 | 100 | – |
| CC[C@H](NC(=O)c1cn(-c2ncc(F)cc2F)c2nc(N3C(=O)C(C)(C)C(O)C34CC4)ccc2c1=O)C(F)(F)F (stereo partly drawn) [Example 31, 1-(3,5-Difluoropyridin-2-yl)-7-[7-hydroxy-6,6-dimethyl-5-oxo-4-azaspiro[2.4]hept-4-yl]-4-oxo-N-[(2S)-1,1,1-trifluorobutan-2-yl]-1,4-dihydro-1,8-naphthyridine-3-carboxamide] | 645 | 88.5 | – |
| CC[C@@H](NC(=O)c1cn(-c2ncc(F)cc2F)c2nc(NCC(F)F)ccc2c1=O)C(F)(F)F [Example 70, 7-[(2,2-Difluoroethyl)amino]-1-(3,5-difluoropyridin-2-yl)-4-oxo-N-[(2R)-1,1,1-trifluorobutan-2-yl]-1,4-dihydro-1,8-naphthyridine-3-carboxamide] | 220 | 91 | – |
| CC[C@H](NC(=O)c1cn(-c2ncc(F)cc2F)c2nc(N3CC(O)C(C)C3=O)ccc2c1=O)C(F)(F)F (single isomer, unassigned) [Example 109] | 135 | 96 | – |
| CC[C@@H](NC(=O)c1cn(-c2ncc(F)cc2Cl)c2nc(N3CC4CC4(O)C3)ccc2c1=O)C(F)(F)F (mixture of isomers) [Example 48, 1-(3-Chloro-5-fluoropyridin-2-yl)-7-[1-hydroxy-3-azabicyclo[3.1.0]hex-3-yl]-4-oxo-N-[(2R)-1,1,1-trifluorobutan-2-yl]-1,4-dihydro-1,8-naphthyridine-3-carboxamide] | 74 | 92.5 | – |
| CC(C)C[C@@H](NC(=O)c1cn(-c2ncc(F)cc2F)c2nc(N3C[C@@H](O)CC3=O)ccc2c1=O)C(F)(F)F [Example 74, 1-(3,5-Difluoropyridin-2-yl)-7-[(4S)-4-hydroxy-2-oxopyrrolidin-1-yl]-4-oxo-N-[(2R)-1,1,1-trifluoro-4-methylpentan-2-yl]-1,4-dihydro-1,8-naphthyridine-3-carboxamide] | 14 | 100 | – |

More lines, now with the values ahead:

| EC50 [nM] | Emax [%] | Efficiency [%] | SMILES |
| --- | --- | --- | --- |
| 2850 | 84.5 | – | O=C(NC1CCC1)c1cn(-c2ncc(F)cc2F)c2nc(N3C[C@@H](O)[C@H](O)C3)ccc2c1=O [Example 168, N-Cyclobutyl-1-(3,5-difluoropyridin-2-yl)-7-[(3R,4R)-3,4-dihydroxypyrrolidin-1-yl]-4-oxo-1,4-dihydro-1,8-naphthyridine-3-carboxamide] |
| 121 | 100 | – | CC(NC(=O)c1cn(-c2ncc(F)cc2F)c2nc(N3CCC(CO)(CO)CC3)ccc2c1=O)C(F)(F)C(F)(F)F (single isomer, unassigned) [Example 185, 7-[4,4-Bis(hydroxymethyl)piperidin-1-yl]-1-(3,5-difluoropyridin-2-yl)-4-oxo-N-[3,3,4,4,4-pentafluorobutan-2-yl]-1,4-dihydro-1,8-naphthyridine-3-carboxamide] |
| 73 | 97 | – | CC(C)(C)[C@H](NC(=O)c1cn(-c2ncc(F)cc2F)c2nc(N3CCCN(CCO)C3=O)ccc2c1=O)C(F)(F)F [Example 125, 1-(3,5-Difluoropyridin-2-yl)-7-[3-(2-hydroxyethyl)-2-oxotetrahydropyrimidin-1(2H)-yl]-4-oxo-N-[(2S)-1,1,1-trifluoro-3,3-dimethylbutan-2-yl]-1,4-dihydro-1,8-naphthyridine-3-carboxamide] |
| 420 | 92 | – | O=C(N[C@@H](C1CC1)C(F)(F)F)c1cn(-c2ncc(F)cc2F)c2nc(N3CCN(CCO)C3=O)ccc2c1=O [Example 167, N-[(1S)-1-Cyclopropyl-2,2,2-trifluoroethyl]-1-(3,5-difluoropyridin-2-yl)-7-[3-(2-hydroxyethyl)-2-oxoimidazolidin-1-yl]-4-oxo-1,4-dihydro-1,8-naphthyridine-3-carboxamide] |
| 145 | 97 | – | CC[C@H](NC(=O)c1cn(-c2ncc(F)cc2F)c2nc(N3C(=O)C4(CC4)C(O)C3C)ccc2c1=O)C(F)(F)F (stereo partly drawn) [Example 113, 1-(3,5-Difluoropyridin-2-yl)-7-[7-hydroxy-6-methyl-4-oxo-5-azaspiro[2.4]hept-5-yl]-4-oxo-N-[(2S)-1,1,1-trifluorobutan-2-yl]-1,4-dihydro-1,8-naphthyridine-3-carboxamide] |
| 89 | 100 | – | CC(C)C(NC(=O)c1cn(-c2ncc(F)cc2F)c2nc(N3C[C@@H](O)CC3=O)ccc2c1=O)C(F)(F)F (stereo partly drawn) [Example 154, 1-(3,5-Difluoropyridin-2-yl)-7-[(4S)-4-hydroxy-2-oxopyrrolidin-1-yl]-4-oxo-N-[1,1,1-trifluoro-3-methylbutan-2-yl]-1,4-dihydro-1,8-naphthyridine-3-carboxamide] |
| 64 | 97.5 | – | O=C(N[C@H](C1CC1)C(F)(F)F)c1cn(-c2ncccc2F)c2nc(N3CC4C[C@@]4(O)C3)ccc2c1=O (single isomer, unassigned) [Example 136] |
| 360 | 100 | – | O=C(NC1(C(F)(F)F)CCC1)c1cn(-c2ncc(F)cc2F)c2nc(N3C[C@@H](O)[C@H](O)C3)ccc2c1=O [Example 155, 1-(3,5-Difluoropyridin-2-yl)-7-[(3R,4R)-3,4-dihydroxypyrrolidin-1-yl]-4-oxo-N-[1-(trifluoromethyl)cyclobutyl]-1,4-dihydro-1,8-naphthyridine-3-carboxamide] |
| 500 | 100 | – | CC[C@H](NC(=O)c1cn(-c2c(F)cncc2F)c2nc(N3C[C@@H](O)[C@H](O)C3)ccc2c1=O)C(F)(F)F [Example 118, 1-(3,5-Difluoropyridin-4-yl)-7-[(3R,4R)-3,4-dihydroxypyrrolidin-1-yl]-4-oxo-N-[(2S)-1,1,1-trifluorobutan-2-yl]-1,4-dihydro-1,8-naphthyridine-3-carboxamide] |
| 100 | – | 99.00 | CC[C@H](NC(=O)c1cn(-c2ncc(F)cc2F)c2nc(N3CC(O)C(C)C3=O)ccc2c1=O)C(F)(F)F (single isomer, unassigned) [Example 111] |
| 400 | 94.5 | – | CC[C@@H](NC(=O)c1cn(-c2ncc(F)cc2F)c2nc(N3CCCC(O)C3)ccc2c1=O)C(F)(F)F (mixture of isomers) [Example 117, 1-(3,5-Difluoropyridin-2-yl)-7-[3-hydroxypiperidin-1-yl]-4-oxo-N-[(2R)-1,1,1-trifluorobutan-2-yl]-1,4-dihydro-1,8-naphthyridine-3-carboxamide] |
| 2250 | 86 | – | CC1(NC(=O)c2cn(-c3ncc(F)cc3F)c3nc(N4C[C@@H](O)[C@H](O)C4)ccc3c2=O)CC(F)(F)C1 [Example 170, N-(3,3-Difluoro-1-methylcyclobutyl)-1-(3,5-difluoropyridin-2-yl)-7-[(3R,4R)-3,4-dihydroxypyrrolidin-1-yl]-4-oxo-1,4-dihydro-1,8-naphthyridine-3-carboxamide] |
| 50 | 100 | – | CC(C)C[C@H](NC(=O)c1cn(-c2ncc(F)cc2F)c2nc(N3CCNC3=O)ccc2c1=O)C(F)(F)F [Example 157, 1-(3,5-Difluoropyridin-2-yl)-4-oxo-7-(2-oxoimidazolidin-1-yl)-N-[(2S)-1,1,1-trifluoro-4-methylpentan-2-yl]-1,4-dihydro-1,8-naphthyridine-3-carboxamide] |
